The record followed here is a melting point compilation (Tetko et al.; mined from patent text by program, amines drawn as free bases though some values may be those of a salt).

The structures appear in SMILES notation. Where only a bound is given, the exact number is not on record here.

A word on the melting point: it is the temperature of the solid-liquid transition.

For `COc1cc(C)cc2c1C(N1CC[N+]([O-])(C(=O)Cc3ccncc3)CC1)c1ncc(Br)cc1CC2` (single isomer, unassigned; (-)), the melting point was 111 to 116 °C.
Compound `Nc1ccc(CCN2CCC(NC(=O)c3ccccc3)CC2)cc1` gave a melting point of 193 to 195 °C.
In turn, `COc1ccc(C(=O)Nc2ccc3ccc(Oc4ccc(Cl)c(Cl)c4)nc3n2)cc1` gave a melting point of 180 °C.
For `O=C(O)CCCCN1CCN2c3ccccc3Cc3ccccc3C2C1` (configuration not stated), the melting point lay within 218 to 219 °C.
`Cc1cccc(-c2cc3cnc(N)nc3nc2N)c1C` gave a melting point of 330 to 333 °C.
To `COc1nc(Cl)c(C(C)C)c(OC)n1` belongs 23 to 24 °C; to `COc1ccc2ccc(N3C(=O)c4ccccc4C3OCC(=O)N3CCOCC3)nc2n1` (configuration not stated), 192 °C; to `CN1Cc2c(-c3nnc(CCl)o3)ncn2-c2ccccc2C1=O`, 221 to 222 °C.
On to `COc1cc(C(=O)P2(=O)Oc3ccccc3-c3ccccc32)cc(OC)c1OC` (configuration not stated), for which the melting point is 147 to 149 °C.
Take `CCCCc1nc2c(N)nc3cc(-c4cccnc4)ccc3c2n1CCNC(=O)C(C)C`: the melting point was 228 to 230 °C.
With `Cc1cnn2c(-c3cccc(-c4ccccc4C#N)c3)cnc2n1`, the melting point fell in the range of 211 to 216 °C.
For `CC(C)(C(=O)O)c1ccc(O[Si](C)(C)C(C)(C)C)cc1`, the melting point is 78 to 80 °C.
To `CCOC(=O)Cc1cc(Br)c(OC(=S)N(C)C)c(Br)c1` belongs 93 to 95 °C; to `COc1cc(OC)c(OC)cc1CN1CCc2cc(O)ccc2C1`, 188 to 191 °C.
With `COc1ccc(/C=C/C(=O)Nc2ccccc2C(=O)NCc2cn(CC(=O)Nc3ccccc3)nn2)cc1OC`, the melting point lay in the range of 189 to 191 °C.
For `COc1ccc(C)cc1NC(=O)Nc1ccc2c(c1)CCN(C(=O)Nc1ccc(OCCO)cc1Cl)C2`, the melting point was 110 to 113 °C.
On to `COc1cc(COc2nn(Cc3ccccc3)cc2CC(=O)O)ccc1OCc1nc(-c2ccccc2)oc1C`, for which the melting point was in the range of 99 to 100 °C.
For the compound `CC(C)n1nc(-c2c(-c3ccccc3)nn3ccc(Oc4ccccn4)cc23)ccc1=O`, the melting point fell in the range of 140 to 142 °C.
Compound `CC1(C)COC(c2ccc(F)cc2-c2ccc3c(c2)CCC(Cc2ccccc2)C3O)=N1` (configuration not stated) yielded a melting point of 88 to 89 °C.
Compound `CCOC(=O)/C=C/c1cn(C)nc1OCc1ccc(OCc2nc(-c3ccco3)oc2C)c(OC)c1` returned a melting point of 135 to 136 °C.
Turning to `COc1ccc(C2CCN(C(=O)CC(N)=O)CC2)cc1OC1CCCC1`, the melting point was in the range of 132 to 133 °C.
In the case of `CCn1c(=O)c(C(=O)O)c(N)c2cccnc21`, the melting point is 245 to 248 °C.
As for `O=C(O)CCCc1cc2nc(Cl)ccc2n1S(=O)(=O)c1ccc(F)cc1`, the melting point came to 180 °C.
The compound `CC(=O)c1cnc(C(=O)C(C)(C)C)cn1` returned a melting point of 41 to 42.5 °C.
As for `CC(=O)N(c1ccc(F)cc1Cl)S(=O)(=O)CCl`, the melting point fell in the range of 89 to 92 °C.
With `COc1ccc(C(C)C)cc1-c1cc(C(=O)OCc2ccccc2)c(OCc2ccccc2)cc1OCc1ccccc1`, the melting point was 139 to 141 °C.
Consider `CCCCOC(=O)c1cc(=O)c2c3c(cc(Cl)c2o1)-c1ccc(S(=O)(=O)O)cc1C(C)(C)O3`, for which the melting point lay in the range of 241 to 243 °C.
To `CC#Cc1cn(C2CC(OC(C)=O)C(COC(C)=O)O2)c(=O)[nH]c1=O` (configuration not stated) belongs 148 to 149 °C; to `O=C1c2cc(Br)sc2SCCN1CCCCCl`, 81 to 89 °C.
Regarding `CC1(c2ccc([N+](=O)[O-])cc2)Cc2cc(OCC(=O)O)c(Cl)c(Cl)c2C1=O` (configuration not stated), the melting point fell in the range of 202 to 205 °C.
Consider `COCCc1nc2ccccn2c(=O)c1-c1ccc(Cl)cc1`, for which the melting point is 116 to 118 °C.
As for `Cn1nc(Br)c([N+](=O)[O-])c1Br`, the melting point was found to be 154 °C.
As to `COC(=O)c1cc(-n2c(-c3ccccc3)cc3c2CCCC3)ccc1O`, the melting point is 141 to 142 °C.
`COC(=O)c1ccc(CCn2ccn(C3CCc4ccccc4C3)c2=S)cc1` (configuration not stated) registered a melting point of 159 to 161 °C.
Regarding `CCn1ncnc1COc1nn2c(-c3ccccc3F)nncc2c1-c1cccs1`, the melting point lay in the range of 190 to 192 °C.
In the case of `CC1CCCC=C1c1ccc(C(=O)N2Cc3cccn3Cc3ccccc32)cc1` (configuration not stated), the melting point lay within 108 to 109 °C.
`O=C(CCc1ccccc1)CN1C(=O)CC1S(=O)CCO` (configuration not stated) came in with a melting point of 64 to 65 °C.
`Clc1nc2ccccc2c2c1ncn2Cc1ccncc1` registered a melting point of over 300 °C.
In the case of `[N-]=[N+]=NS(=O)(=O)c1cc(C(=O)O)cc(S(=O)(=O)N=[N+]=[N-])c1`, the melting point is 181 to 183 °C.
Take `BrCCOc1ccsc1`: the melting point was determined as 46 °C.
Consider `Nc1ccc(Cl)n2nc(SCc3ccccc3)nc12`, for which the melting point is 113 to 114 °C.
For the compound `Cc1ccccc1-n1c(Cn2cnc3c(N)ncnc32)nc2cccc(C)c2c1=O`, the melting point lay in the range of 282 to 283 °C.
Compound `Cc1c(N)cc([N+](=O)[O-])c(N)c1C` gave a melting point of 159 °C.
To `N#Cc1ccc(-c2ccc(-c3ccn([C@H](CC(=O)O)C(=O)N[C@H](CO)Cc4ccccc4)c3)cc2)cc1` belongs 189 to 192 °C.
To `CC1(c2ccc(O)c(Br)c2)C(=O)Nc2cc(Cl)cc(Cl)c2C1=O` (configuration not stated) belongs 228 to 229 °C; to `COc1ccc(S(=O)(=O)N(CCNS(C)(=O)=O)c2ccc(Cl)cc2Cc2c(F)cccc2F)cc1OC`, 133 °C.
In the case of `Cc1c(-c2ccc(N(C)C)nn2)ssc1=S`, the melting point amounted to 216 °C.
Take `CCOC(=O)c1c(N2CCN(C(=O)c3cccs3)CC2)c2cc(F)cnc2[nH]c1=O`: the melting point was 124 to 133 °C.
Compound `COc1cc2c(cc1O)CCN(C(=O)c1cc(OC)c(OC)c(OC)c1)C2` displayed a melting point of 172 to 173 °C.
Compound `COc1ccc(C2(C#Cc3ccc([N+](=O)[O-])cc3)CCC3(CC2)OCCO3)cc1OC1CCCC1` gave a melting point of 58 to 59 °C.
In the case of `Cc1oc(-c2ccccc2)nc1COc1ccc(CON=C(C(=O)O)C(C)C)cc1`, the melting point fell in the range of 128 to 129 °C.
`O=C(CC(F)=C(F)F)NS(=O)(=O)C(F)(F)F`: the melting point lay within 115 to 120 °C.
`N#CCc1nn2c(C(F)(F)F)cc(-c3ccc(F)c(Cl)c3)nc2c1C#N` displayed a melting point of 185 °C.
For the compound `CN1CCN(c2nn(-c3ccc(O)cc3)c3ccccc23)CC1`, the melting point was 191 to 193 °C.
To `Cc1ccc(CNC(=O)c2ccnc(NC(=O)c3ccccc3)c2)cc1` belongs 135 to 138 °C; to `CC(C)(C)OC(=O)N1CC(CCl)c2c1ccc1ccc(C#N)cc21` (configuration not stated), 138 to 140 °C; to `CC(=O)Oc1c(C(C)C)c(-c2ccc(F)cc2)c(O)c(C(C)C)c1C(C)C`, 174 to 177 °C.
`O=C(O)Cc1cccc(Oc2ccccc2F)c1[N+](=O)[O-]` yielded a melting point of 144 to 146 °C.
On to `CC(c1ccccc1)N1Cc2cncn2C(c2ccc(C#N)cc2)C1=O` (configuration not stated), for which the melting point is 157 to 158 °C.
To `Cc1c(-c2ccncc2)c(-c2ccc(F)cc2)n2c1SCC2` belongs 208 °C; to `CC(=O)CC(=O)c1cccc2[nH]ccc12`, 104 to 105 °C; to `Cc1cc2cc(CN3CCOCC3)cnc2cc1NC(=O)c1ccc(-c2ccc(F)cc2)cc1`, 153 to 158 °C.
